Measurements reported in patent US7252992B2, “Cell line and uses thereof” (Abbott Laboratories, priority 2003, dated 2007).

Legend:
MCHR1 [1] = biological target: T1, MCHR1 (Homo sapiens, UniProt Q99705); conditions: literature (Takekawa et al. 2002; Borowsky et al. 2002); cited from earlier work
MCHR1 [2] = biological target: T1, MCHR1; conditions: literature (Takekawa et al. 2002; Borowsky et al. 2002); cited from earlier work; remark: listed apart in the source
[3] = biological target: T2, melanin concentrating hormone receptor (MCHR) (Homo sapiens, UniProt Q99705); assay: Ca++-mobilization assay using I3.4.2 cells (FLIPR); format: cell-based; conditions: for inhibition of MCH-stimulated intracellular Ca++-flux: T42402I3.4.2 cell line, FIG. 3
T2 construct: endogenous in cells; host or cells: T42402I3.4.2 (I3.4.2) cells, ATCC PTA-5201, derived from IMR32 (ATCC CCL-127) by transfection of a Galpha16/Zeocin-resistance plasmid
Protocol: The following day, Zeocin (Invitrogen, Carlsbad, Calif.) was added to a final concentration of 20 μg/ml. Cells were maintained in this medium with periodic replacement until discrete colonies were observed. Individual colonies were isolated and propagated until sufficiently large cell populations were obtained such that the cell samples could be cryopreserved.
This intracellular calcium release is measured using a fluorometeric imaging plate reader (FLIPR™, Molecular Devices Corp., Sunnyvale, Calif.) in conjunction with the Ca^++-sensitive dye reagent (Calcium Assay Reagent, Molecular Devices Corp., Sunnyvale, Calif.). Release of Ca^++ from intracellular stores causes an increase in fluorescence of the dye that is proportional to Ca^++ concentration. Thus, this method may be utillized to identify agonist-s, antagonists, and inverse agonists of MCHR1.
In particular, the assay is carried out as follows: The cells are cultured in MEM/10% fetal bovine serum/50 μg/mL gentamicin/200 μg/ml Zeocin. […] Calcium Assay Reagent fluorescence is measured at 488 nm, with an exposure of 0.40 sec. and F-stop=2.0 and the laser set at 0.20-0.40 W constant light output.

T2 sequence (Q99705 whole entry): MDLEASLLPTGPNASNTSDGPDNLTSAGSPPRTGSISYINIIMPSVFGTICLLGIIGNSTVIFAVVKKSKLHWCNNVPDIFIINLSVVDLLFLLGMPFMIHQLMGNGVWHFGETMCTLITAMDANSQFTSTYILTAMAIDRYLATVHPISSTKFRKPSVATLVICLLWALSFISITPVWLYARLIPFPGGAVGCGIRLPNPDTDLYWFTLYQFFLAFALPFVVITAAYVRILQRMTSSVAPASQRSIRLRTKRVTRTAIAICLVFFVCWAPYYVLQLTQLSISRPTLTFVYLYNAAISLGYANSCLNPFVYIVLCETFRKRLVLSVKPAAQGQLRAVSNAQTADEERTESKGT
T1 sequence (Q99705 whole entry, species assumed): as the sequence (Q99705 whole entry) above

Structure (SMILES)	inhibition of activation of intracellular signaling by MCH (MCHR1 [1])	inhibition of binding of 125I-labeled MCH to MCHR1 (MCHR1 [2])	inhibition of MCH-stimulated intracellular Ca++-flux [3]	MCH-induced response (fluorescence) ([3]; MCH 1 μM, baseline approximately 700 RFU)
COCC1=C(C(=O)OC)[C@H](c2ccc(F)c(F)c2)N(C(=O)NCCCN2CCC(c3cccc(NC(C)=O)c3)CC2)C(=O)N1 [SNAP-7941]	inhibit	inhibit binding	inhibited	–
CSCC[C@@H]1NC(=O)[C@@H](NC(=O)[C@H](CCCNC(=N)N)NC(=O)[C@H](CC(C)C)NC(=O)[C@H](CCSC)NC(=O)[C@H](CC(=O)O)NC(=O)[C@H](Cc2ccccc2)NC(=O)[C@@H](N)CC(=O)O)CSSC[C@@H](C(=O)N[C@@H](Cc2c[nH]c3ccccc23)C(=O)N[C@@H](CCC(N)=O)C(=O)N[C@H](C(=O)O)C(C)C)NC(=O)[C@@H]2CCCN2C(=O)[C@H](CCCNC(=N)N)NC(=O)[C@H](Cc2ccc(O)cc2)NC(=O)[C@H](C(C)C)NC(=O)[C@H](CCCNC(=N)N)NC(=O)CNC(=O)[C@H](CC(C)C)NC1=O [MCH, melanin-concentrating hormone]	–	–	–	5,000-6,000 relative fluorescence units (RFU)
CN(C)CC1CCc2cc(NC(=O)c3ccc(-c4ccc(F)cc4)cc3)ccc2C1 (stereo not shown) [T-226296]	inhibit	inhibit binding	inhibited	–
